The source made the active and inactive calls. No cut-off for these calls is given here.
Experiments:
DNA polymerase beta [1] = target: T1, DNA polymerase beta (Homo sapiens, UniProt P06746); assay: Inhibition of human DNA polymerase beta
DNA polymerase beta [2] = target: T1, DNA polymerase beta; assay: Inhibition of human DNA polymerase beta assessed as inhibition of dCTP incorporation by gap filling assay

Ki (DNA polymerase beta [1])	Activity (DNA polymerase beta [2])	Structure (SMILES)
1000 nM	–	Nc1nc2c(ncn2[C@H]2C[C@H](O)[C@@H](COP(=O)(O)CP(=O)(O)OP(=O)(O)O)O2)c(=O)[nH]1
5000 nM	–	Nc1ncnc2c1ncn2[C@H]1C[C@H](O)[C@@H](COP(=O)(O)CP(=O)(O)OP(=O)(O)O)O1
900 nM	Active	Nc1ccn([C@H]2C[C@H](O)[C@@H](COP(=O)(O)CP(=O)(O)OP(=O)(O)O)O2)c(=O)n1

Structure (SMILES)	Ki (DNA polymerase beta [1])	Activity (DNA polymerase beta [2])
Cc1cn([C@H]2C[C@H](O)[C@@H](COP(=O)(O)CP(=O)(O)OP(=O)(O)O)O2)c(=O)[nH]c1=O	600 nM	–

Reference: ChEMBL document CHEMBL1140151, “Alpha,beta-methylene-2'-deoxynucleoside 5'-triphosphates as noncleavable substrates for DNA polymerases: isolation, characterization, and stability studies of novel 2'-deoxycyclonucleosides, 3,5'-cyclo-dG, and 2,5'-cyclo-dT” (J Med Chem, 2008)
